Assay results taken from PubChem BioAssay (NCI).
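GI50: concentration for 50% inhibition of growth. TGI: concentration producing complete growth inhibition.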

Columns and labels:
Assay in all cases: NCI anticancer screen, dose series, 384-well format
HT29 colon = test system: HT29 colon
MDA-MB-435 melanoma = test system: MDA-MB-435 melanoma
SF-295 CNS = test system: SF-295 CNS
HCT-15 colon = test system: HCT-15 colon
SK-MEL-2 melanoma = test system: SK-MEL-2 melanoma
MDA-MB-468 breast = test system: MDA-MB-468 breast
U251 glioblastoma = test system: U251 glioblastoma
MALME-3M melanoma = test system: MALME-3M melanoma
NCI-H23 lung = test system: NCI-H23 lung
SNB-75 CNS = test system: SNB-75 CNS
UACC-257 melanoma = test system: UACC-257 melanoma
IGROV1 ovarian = test system: IGROV1 ovarian
TK-10 renal = test system: TK-10 renal
SF-268 CNS = test system: SF-268 CNS
CCRF-CEM leukemia = test system: CCRF-CEM leukemia
K-562 leukemia = test system: K-562 leukemia
HCT-116 colon = test system: HCT-116 colon
ACHN renal = test system: ACHN renal
BT-549 breast = test system: BT-549 breast
LOX IMVI melanoma = test system: LOX IMVI melanoma
PC-3 prostate = test system: PC-3 prostate
UO-31 renal = test system: UO-31 renal
NCI-H522 lung = test system: NCI-H522 lung
SR leukemia = test system: SR leukemia

`O=C(/C=C/c1cccc(S(=O)(=O)Nc2ccccc2)c1)NO` showed a GI50 (HT29 colon) of 282 nM, a TGI (HT29 colon) of 918 nM and a GI50 (MDA-MB-435 melanoma) of 492 nM. The TGI (MDA-MB-435 melanoma) was 1450 nM, the GI50 (SF-295 CNS) was 607 nM and the TGI (SF-295 CNS) was 1910 nM. The GI50 (HCT-15 colon) was 579 nM, the TGI (HCT-15 colon) was 2100 nM and the GI50 (SK-MEL-2 melanoma) was 265 nM. For the same molecule, the TGI (SK-MEL-2 melanoma) was 558 nM, the GI50 (MDA-MB-468 breast) was 196 nM and the TGI (MDA-MB-468 breast) was 487 nM. It also gave a GI50 (U251 glioblastoma) of 430 nM, a TGI (U251 glioblastoma) of 1340 nM and a GI50 (MALME-3M melanoma) of 184 nM. For the same molecule, the TGI (MALME-3M melanoma) was 450 nM, the GI50 (NCI-H23 lung) was 407 nM and the TGI (NCI-H23 lung) was 1590 nM. The GI50 (SNB-75 CNS) was 258 nM, the TGI (SNB-75 CNS) was 796 nM and the GI50 (UACC-257 melanoma) was 289 nM. It also gave a TGI (UACC-257 melanoma) of 1030 nM, a GI50 (IGROV1 ovarian) of 271 nM and a TGI (IGROV1 ovarian) of 781 nM. It also gave a GI50 (TK-10 renal) of 445 nM, a TGI (TK-10 renal) of 2000 nM and a GI50 (SF-268 CNS) of 517 nM. It also gave a TGI (SF-268 CNS) of 1660 nM, a GI50 (CCRF-CEM leukemia) of 134 nM and a TGI (CCRF-CEM leukemia) of 263 nM. For the same molecule, the GI50 (K-562 leukemia) was 188 nM, the TGI (K-562 leukemia) was 394 nM and the GI50 (HCT-116 colon) was 205 nM. The TGI (HCT-116 colon) was 630 nM, the GI50 (ACHN renal) was 493 nM and the TGI (ACHN renal) was 1540 nM. It also gave a GI50 (BT-549 breast) of 925 nM, a TGI (BT-549 breast) of 2820 nM and a GI50 (LOX IMVI melanoma) of 385 nM. The TGI (LOX IMVI melanoma) was 1410 nM, the GI50 (PC-3 prostate) was 433 nM and the TGI (PC-3 prostate) was 1760 nM. The GI50 (UO-31 renal) was 1020 nM, the TGI (UO-31 renal) was 3170 nM and the GI50 (NCI-H522 lung) was 155 nM. It also gave a TGI (NCI-H522 lung) of 610 nM and a GI50 (SR leukemia) of 88.4 nM.
